Results published in patent US10227610B2, “Methods and compositions for enhancing nuclease-mediated gene disruption” (SANGAMO THERAPEUTICS, INC., priority 2013, dated 2019).

What was measured:
Hepa 1-6 cells = assay: Mutagenic repair (% indels) after albumin-specific ZFN, Surveyor/CelI assay and clone sequencing; assay type: cell-based
Procedure: In particular, the inhibitors Olaparib (PARP1-inhibitor) and NU7441 (DNA-PKcs inhibitor) were added 3 hours after mRNA delivery at concentration of 5 μM and 3-5 μM respectively. As a control, the ATM inhibitor KU55933 was added at a concentration of 10 μM (ATM has no direct role in DSB repair but is related to DNA-PKcs). After 15 hours, fresh inhibitors were added to the medium to counteract the decay of the inhibitors in the cell culture medium.
After a further 54 hours, cells were harvested and genomic DNA was prepared for Day 3 analysis by Surveyor™/CelI assay and DNA sequencing. For DNA sequencing the genomic target region of the ZFN was amplified by PCR, topo-cloned and 96 individual clones were sequenced. The sequences were analyzed and the results used to divide the clones into groups by the genome type (e.g. wild type genomes, those with insertions and/or deletions, and those with other modifications). At Day 3 harvest about a third of the cells were re-seeded in fresh medium without inhibitors and were grown until day 10 when they were harvested and analyzed by Surveyor™/CelI assay.

K562 cells [1] = assay: ZFN-mediated targeted integration of ssOligo at CCR5 locus, RFLP assay and 96 colony sequencing; assay type: cell-based, human; settings: Day 3; for effect on targeted integration: KU55933 10 μM, Olaparib 5 μM added to DNA-PKcs inhibitor
Procedure: K562 cells were transfected by Amaxa® electroporation system with plasmid DNA encoding a CCR5-specific ZFN pair (see, U.S. Pat. No. 7,951,925) and a single-stranded oligonucleotide (ssOligo) (120 bp) which has homology to the target region and harbors a unique restriction site (Avr II). The cells then were treated twice with small molecule inhibitors described in Example 1 (outlined in FIG. 2A). In particular, the inhibitors Olaparib (PARP1/2-inhibitor) and NU7441 (DNA-PKcs-inhibitor) were added 5 hours after the ZFN-encoding DNA delivery at concentration of 5 μM and 3 μM, respectively. As a control, the ATM inhibitor KU55933 was added at a concentration of 10 μM. After 15 hours, fresh inhibitors were added to the medium to counteract the decay of the inhibitors in the cell culture medium. After a further 54 hours, the cells were harvested and genomic DNA was prepared for Day 3 analysis by Surveyor™/CelI assay, RFLP analysis and DNA sequencing.
The RFLP assay was carried out by digestion of the PCR amplified target locus with a restriction enzyme cutting in the integrated ssOligo. For DNA sequencing, the genomic target region of the ZFN was amplified by PCR, topo-cloned and 96 individual clones were sequenced.

K562 cells [2] = assay: Nickase ZFN with ssOligo at CCR5, Surveyor/CelI assay and sequencing; assay type: cell-based, human
Text: K562 cells were transfected by Amaxa electroporation system with plasmid DNA encoding a CCR5-specific ZFN pair (see, U.S. Pat. No. 7,951,925) and a single-stranded oligonucleotide (ssOligo) (120 bp) which has homology to the target region and harbors a unique restriction site (Avr II). […] Due to the less deleterious nature of this kind of DNA damage, recombination events mediated by ssDNA breaks may be preferable over DSBs. However, the frequency of gene modification mediated via ssDNA breaks is very low. DNA-PKcs and PARP inhibitors were used in an attempt to increase the frequency of gene modification mediated via ssDNA breaks (“nicks”).
Briefly, the transfected K562 cells were treated twice with either PARP1/2 inhibitor (Olaparib-5 μM) or DNA-PKcs inhibitor (NU7441-3 μM) 5 hours and 15 hours after transfection to counteract the decay of the inhibitors in the cell culture medium. After a further 54 hours, cells were harvested and genomic DNA was prepared for Day 3 analysis by Surveyor™/CelI assay, RFLP analysis and DNA sequencing as described in Example 1. The RFLP assay was carried out by digestion of the PCR amplified target locus with a restriction enzyme cutting in the integrated ssOligo. For DNA sequencing, the genomic target region of the ZFN was amplified by PCR, topo-cloned, and 96 individual clones were sequenced.

CD34+ cells = assay: Targeted integration of ssOligo at CCR5 in primary cells, clone sequencing; assay type: cell-based; settings: NU7441 3 μM, Day 3; at the expense of 5-nucleotide duplications and deletions
Procedure: Specifically, donor derived CD34+ cells were transfected 3 days after culture in medium suppressing differentiation. This was carried out by the BTX electroporation system with mRNA DNA encoding a CCR5-specific ZFN pair and a ssOligonucleotide (120 bp) which has homology to the target region and harbors a unique restriction site (Avr II). The cells were then treated twice with small molecule inhibitors as described in Example 1. In particular, the inhibitor NU7441 (DNA-PKcs-inhibitor) was added 3 hours after mRNA delivery at a concentration of 3 μM. After 15 hours, fresh inhibitors were added to the medium to counteract the decay of the inhibitors in the cell culture medium. After a further 54 hours, cells were harvested and genomic DNA was prepared for Day 3 analysis by DNA sequencing. For DNA sequencing the genomic target region of the ZFN was amplified by PCR, topo-cloned, and 96 individual clones were sequenced.

K562 cells [3] = assay: TALEN-mediated targeted integration at human CCR5 locus, deep sequencing; assay type: cell-based
Procedure: See, e.g., U.S. Pat. No. 8,586,526. K562 cells were transfected by AMAXA with plasmid DNA encoding either hCCR5 TALENs or ZFNs and then the cells were treated with DMSO or DNA-PKcs inhibitor NU7441. Cells were harvested at Day 3 and Day 10 and genomic PCR was analyzed after PCR by deep sequencing.

CHO K1 cells = assay: Targeted integration of double stranded donor at glutamine synthetase (GS) locus, RFLP; assay type: cell-based
Procedure: The use of DNA PKcs inhibitors during insertion of a double stranded donor in CHO K1 cells was also tested. For this experiment, a donor that was delivered either via a plasmid (FIG. 4E) or via a PCR fragment (FIG. 4F). Briefly, CHO K1 cells were transfected with Nucleofector Kit V on an Amaxa® instrument. The transfection components and their dosages were as follows: one million CHO K1 cells suspended in 100 μl of Nucleofection™ Solution V; 4 μg each of two in vitro transcribed ZFN mRNAs engineered for inducing DSBs at the glutamine synthetase locus (GS) in CHO cells (see, e.g., U.S. Pat. No. 8,153,399); 2 μg (FIG. 4E) or 4 μg (FIG. 4F) of in vitro transcribed CHO or human Rad52 mRNA; 10 μg of plasmid donor (3.8 kb) or PCR fragment donor (1.1 kb). The plasmid donor and the PCR fragment donor both carried the same target integration sequence, containing two 500 bp homologous arms, two loxP sites, and a multiple cloning site.
DNA-PKcs inhibitor NU7026 or NU7441 was added into 2 ml per well of pre-warmed culture medium in a 6-well plate at concentration of 20 μM or 16 respectively, before transfected cells were added into the medium. Cells were grown in the inhibitor-containing medium for 24 hours at 37° C. and 5% CO2. The medium was then replaced with fresh medium without inhibitor. DMSO was used as inhibitor blank control. […]

HEK293 cells = assay: Targeted integration of ssDNA oligo donor at AAVS1 locus, RFLP; assay type: cell-based, human; settings: NU7441 10 μM
Procedure: We next used the inhibitors to measure their effect on targeted integration of single-stranded donors. Briefly, HEK293 and MCF7 cells were transfected with Nucleofector Kit V and MCF10A cells were transfected with Nuleofector™ Kit L on an Amaxa® instrument. The transfection components and their dosages were as follows: 0.8 million cells suspended in 100 μL of nucleofection solution; 3 μg each of two in vitro transcribed ZFN mRNAs engineered for inducing DSBs at the AAVS1 locus in human cells (see, e.g., U.S. Pat. No. 8,110,379); 0.3 nmol of a 100-nt ssDNAoligo donor. The oligo donor carried a HindIII restriction site at the position of 20 bp upstream of the ZFN cleavage site, and the HindIII site was used as marker for target integration analysis by RFLP. DNA-PKcs inhibitor NU7441 was added into 2 ml per well of pre-warmed culture medium in a 6-well plate at concentration of 10 μM for HEK293 and MCF7, and 15 or 20 μM for MCF10A before transfected cells were added into the medium. Cells were grown in the inhibitor-containing medium for 24 hours at 37° C. and 5% CO2. The medium was then replaced with fresh medium without inhibitor. DMSO was used as inhibitor blank control. For genomic DNA preparation, HEK293 and MCF10A cells were harvested 3 days after transfection, and MCF7 cells were harvested 5 days after nucleofection. […]

K562 cells [4] = assay: Targeted integration of AAVS1 oligo with double-stranded cleaving or nickase ZFNs, HindIII digestion; assay type: cell-based, human; settings: NU1025 for 24 hr or 48 hr
Procedure: In another experiment, K562 cells were treated with the PARP1 inhibitor NU1025. Briefly, two million K562 cells were nucleofected with 5 μg of double-stranded cleaving or nickase ZFNs specific for AAVS1 (U.S. Pat. No. 8,110,379) with or without 3 μl of an antisense AAVS1 oligo (100 μM). The cells were immediately treated with PARP inhibitor NU1025 after nucleofection for 24 hr or 48 hr. All cells were harvested 48 hr after nucleofection. 1.0 μg of PCR DNA was subjected to HindIII digestion.

O=c1cc(-c2cccc3c2Sc2ccccc2S3)oc(N2CCOCC2)c1 [KU55933]
effect on mutagenic repair (Hepa 1-6 cells; KU55933 10 μM control): slight decrease
effect on targeted integration (K562 cells [1]): no effect

O=C(c1cc(Cc2n[nH]c(=O)c3ccccc23)ccc1F)N1CCN(C(=O)C2CC2)CC1 [Olaparib]
effect on targeted integration (K562 cells [1]): did not further increase

O=c1cc(N2CCOCC2)oc2c(-c3cccc4c3sc3ccccc34)cccc12 [NU7441]
CelI signal (indels) (K562 cells [2]; Nickase ZFNs co-transfected with ssOligo, NU7441 3 μM, Olaparib 5 μM): 7%
clones with non-WT sequence (perfect targeted integration of the ssOligo) (K562 cells [2]; sequencing of 96 clones): one of 96
increase of mutagenic repair (Hepa 1-6 cells; Day 10, after withdrawal of inhibitors): about 2 fold
targeted integration (CD34+ cells): slight increase
TALEN-mediated targeted integration (K562 cells [3]; Day 3, vs DMSO): up to two fold
share of all genome editing events that are targeted integrations (K562 cells [3]; TALENs, after NU7441 treatment): more than half
unwanted mutagenic events (Indels) (K562 cells [3]; TALENs, after NU7441 treatment): drastically reduced
increase of PCR fragment donor-based target integration (CHO K1 cells; PCR fragment donor): about 5 fold
increase of targeted integration (K562 cells [1]; NU7441 3 μM, RFLP and 96 colony sequencing): 2-3 fold
targeted integration of a single stranded donor (HEK293 cells): increased

Cc1nc2c(O)cccc2c(=O)[nH]1 [NU1025]
integration of AAVS1 oligo (K562 cells [4]): detectable integration

O=c1cc(N2CCOCC2)oc2c1ccc1ccccc12 [NU7026]
plasmid donor-based target integration (CHO K1 cells; NU7026 alone, 20 μM): no apparent increase
